In ChEMBL document CHEMBL1782032, “New aromatic substituted pyrazoles as selective inhibitors of human adipocyte fatty acid-binding protein” (Bioorg Med Chem Lett, 2011):
Calls of active or inactive are those of the source. No cut-off for these calls is given here.

Assays:
[1] = target: T1, Fatty acid-binding protein, adipocyte (Homo sapiens, UniProt P15090); assay: Displacement of fluorescent 1-anilinonapthalene 8-sulfonic acid from human a-FABP by fluorescence spectrophotometry
Target sequence in this assay (P15090 whole entry): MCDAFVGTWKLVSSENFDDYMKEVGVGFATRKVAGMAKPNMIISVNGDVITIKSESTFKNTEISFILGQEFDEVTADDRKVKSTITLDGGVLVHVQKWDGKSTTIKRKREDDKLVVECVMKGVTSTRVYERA

[2] = target: T2, Fatty acid-binding protein, heart (Homo sapiens, UniProt P05413); assay: Displacement of fluorescent 1-anilinonapthalene 8-sulfonic acid from human h-FABP by fluorescence spectrophotometry
Target sequence in this assay (P05413 whole entry): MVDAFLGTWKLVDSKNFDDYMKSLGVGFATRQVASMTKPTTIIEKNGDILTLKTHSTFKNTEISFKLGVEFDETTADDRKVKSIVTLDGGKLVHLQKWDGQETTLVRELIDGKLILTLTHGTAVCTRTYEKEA

RAW264.7 [3] = assay: Antiinflammatory activity in […] RAW264.7 cells assessed as inhibition of lipopolysaccharide induced TNF-alpha mRNA expression by PCR; assay type: functional, cell-based
RAW264.7 [4] = assay: Antiinflammatory activity in […] RAW264.7 cells assessed as inhibition of lipopolysaccharide induced MCP-1/CCL2 mRNA expression by PCR; assay type: functional, cell-based
[5] = target: T2, Fatty acid-binding protein, heart; assay: Displacement of fluorescent 1-anilinonapthalene 8-sulfonic acid from human h-FABP at 10 uM by fluorescence spectrophotometry
Target sequence in this assay (P05413 2-133 limits assumed): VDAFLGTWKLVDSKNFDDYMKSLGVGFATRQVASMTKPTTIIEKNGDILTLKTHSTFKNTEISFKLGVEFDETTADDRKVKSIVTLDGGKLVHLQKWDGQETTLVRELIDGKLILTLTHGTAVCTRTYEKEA

[6] = target: T1, Fatty acid-binding protein, adipocyte; assay: Displacement of fluorescent 1-anilinonapthalene 8-sulfonic acid from human a-FABP at 10 uM by fluorescence spectrophotometry
Target sequence in this assay (P15090 2-132 limits assumed): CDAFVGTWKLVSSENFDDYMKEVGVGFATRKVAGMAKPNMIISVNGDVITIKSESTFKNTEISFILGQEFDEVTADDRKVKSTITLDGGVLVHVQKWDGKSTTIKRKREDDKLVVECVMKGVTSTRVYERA

| SMILES | Ki [1] [nM] | Ki [2] [nM] | Activity [5] | Activity [6] | inhibition (RAW264.7 [3]) | inhibition (RAW264.7 [4]) |
| --- | --- | --- | --- | --- | --- | --- |
| O=C(O)COc1cccc(-c2ccccc2-c2cc(-c3ccco3)n(-c3ccc(Cl)cc3)n2)c1 | 7 | 4130 |  |  |  |  |
| O=C(O)COc1cccc(-c2ccccc2-c2cc(-c3cccs3)n(-c3ccc(Cl)cc3)n2)c1 | 5 | 4240 |  |  |  |  |
| O=C(O)COc1cccc(-c2ccccc2-c2cc(-c3ccccc3)n(-c3ccc(Cl)cc3)n2)c1 | 13 | 17000 |  |  |  |  |
| CCc1c(-c2ccccc2)c(-c2ccccc2)nn1-c1ccccc1-c1cccc(OCC(=O)O)c1 |  |  |  |  | Dose-dependent effect | Dose-dependent effect |
| CC(Oc1cccc(-c2ccccc2-c2cc(-c3cccs3)n(-c3ccc(Cl)cc3)n2)c1)C(=O)O (configuration not stated) | < 1 | 2270 |  |  | Dose-dependent effect | Dose-dependent effect |

Continued, in another order:

| Ki [1] [nM] | Ki [2] [nM] | Activity [5] | Activity [6] | SMILES | inhibition (RAW264.7 [3]) | inhibition (RAW264.7 [4]) |
| --- | --- | --- | --- | --- | --- | --- |
| 6 | 3720 |  |  | CCC(Oc1cccc(-c2ccccc2-c2cc(-c3cccs3)n(-c3ccc(Cl)cc3)n2)c1)C(=O)O (configuration not stated) |  |  |
|  |  | inactive | inactive | CCOC(=O)COc1cccc(-c2ccccc2-n2nc(-c3ccccc3)c(-c3ccccc3)c2CC)c1 |  |  |
| 32 | 5240 |  |  | O=C(O)COc1cccc(-c2ccccc2-c2cc(-c3ccccc3)n(-c3ccccc3)n2)c1 |  |  |
| < 1 | > 50000 |  |  | CC(C)(Oc1cccc(-c2ccccc2-c2cc(-c3cccs3)n(-c3ccc(Cl)cc3)n2)c1)C(=O)O | Dose-dependent effect | Dose-dependent effect |
